Test results from article PMC7660650, “Chemical Starting Matter for HNF4α Ligand Discovery and Chemogenomics” (International Journal of Molecular Sciences, 2020).
“And” between values parts separate entries of the source, which are not always exact repeats. Equal entries are not always repeated.

Biological target: T1, Gal4-HNF4α (human HNF4α LBD) (Homo sapiens, UniProt P41235)
T1 construct: uniprot entry: P41235-1, residues 142-377; expressed in transfected cells; host or cells: HEK293T
T1 sequence (P41235 142-377): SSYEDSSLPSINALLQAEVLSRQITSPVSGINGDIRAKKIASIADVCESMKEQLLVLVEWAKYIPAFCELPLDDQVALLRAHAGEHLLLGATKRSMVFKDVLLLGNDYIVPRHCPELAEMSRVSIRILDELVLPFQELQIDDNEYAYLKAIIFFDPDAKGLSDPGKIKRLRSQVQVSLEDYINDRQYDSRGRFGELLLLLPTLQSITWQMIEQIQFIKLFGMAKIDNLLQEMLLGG
Experiment: Hybrid Gal4-HNF4α reporter gene assay in transiently transfected HEK293T cells
Format: cell-based
Conditions: Table S1, primary screening, 50 µM

With `OCCOc1cccc2[nH]ccc12` [Prestw-Frag-1595, OCCOc1cccc2[nH]ccc12] as the compound, how does the “HNF4a-screening_activity_(mean_of_n=2)” value read?
Its value is 0.8145 and 1.05.

With `CCN1CCCC1CNC(=O)c1ccc(N)cc1` (stereo not shown) [Prestw-Frag-1632, CCN1CCCC1CNC(=O)c1ccc(N)cc1] as the compound, how does the “HNF4a-screening_activity_(mean_of_n=2)” value read?
Its value is 0.8541.

Which “HNF4a-screening_activity_(mean_of_n=2)” value does the source give for `NCCc1c[nH]c2ccc(O)cc12` [Prestw-Frag-1643, NCCc1c[nH]c2ccc(O)cc12] here?
The value was 1.007.

Which “HNF4a-screening_activity_(mean_of_n=2)” value does the source give for `Oc1ccc2[nH]ccc2c1` [Prestw-Frag-1645, Oc1ccc2[nH]ccc2c1] here?
Its value is 1.016.

With `Cc1cc(N)no1` [Prestw-Frag-1647, Cc1cc(N)no1] as the compound, how does the “HNF4a-screening_activity_(mean_of_n=2)” value read?
Its value is 0.9773.

`Nc1ccnn1-c1ccccc1` [Prestw-Frag-1648, Nc1ccnn1-c1ccccc1] was tested. Which “HNF4a-screening_activity_(mean_of_n=2)” value did it give?
Its value is 1.023.

How did the “HNF4a-screening_activity_(mean_of_n=2)” value turn out when `OC(c1ccccc1)(c1ccccc1)C1CCNCC1` [Prestw-Frag-1654, OC(C1CCNCC1)(c1ccccc1)c1ccccc1] was run?
The value was 1.142 and 1.152.

For `NC(=O)CN1C(=O)c2ccccc2C1=O` [Prestw-Frag-1661, NC(=O)CN1C(=O)c2ccccc2C1=O], which “HNF4a-screening_activity_(mean_of_n=2)” value is on record?
The value was 1.028.

`Cc1ccc(S(=O)(=O)NC(N)=O)cc1` [Prestw-Frag-1667, Cc1ccc(cc1)S(=O)(=O)NC(N)=O] was tested. Which “HNF4a-screening_activity_(mean_of_n=2)” value did it give?
The value was 1.077.

Which “HNF4a-screening_activity_(mean_of_n=2)” value does the source give for `O=c1[nH]nc2ccccn12` [Prestw-Frag-1673, O=c1[nH]nc2ccccn12] here?
Its value is 1.045.

With `O=C(O)C(CO)c1ccccc1` (stereo not shown) [Prestw-Frag-1686, OCC(C(O)=O)c1ccccc1] as the compound, how does the “HNF4a-screening_activity_(mean_of_n=2)” value read?
The value was 1.109.

How did the “HNF4a-screening_activity_(mean_of_n=2)” value turn out when `CC(N)COc1ccccc1` (stereo not shown) [Prestw-Frag-1691, CC(N)COc1ccccc1] was run?
Its value is 0.7151 and 1.122.

How did the “HNF4a-screening_activity_(mean_of_n=2)” value turn out when `c1cc2c(s1)CCNC2` [Prestw-Frag-1694, C1Cc2sccc2CN1] was run?
Its value is 1.028 and 1.127.

For `Clc1cccc(CN2CCNCC2)c1` [Prestw-Frag-1700, Clc1cccc(CN2CCNCC2)c1], which “HNF4a-screening_activity_(mean_of_n=2)” value is on record?
Its value is 1.014 and 1.092.

How did the “HNF4a-screening_activity_(mean_of_n=2)” value turn out when `Clc1ccc(-c2cncnc2)cc1` [Prestw-Frag-1704, Clc1ccc(cc1)-c1cncnc1] was run?
The value was 0.9459 and 1.223.

For `CCCC(=O)Nc1ccc(O)c(C(C)=O)c1` [Prestw-Frag-1716, CCCC(=O)Nc1ccc(O)c(c1)C(C)=O], which “HNF4a-screening_activity_(mean_of_n=2)” value is on record?
Its value is 0.8359.

Which “HNF4a-screening_activity_(mean_of_n=2)” value does the source give for `CCCC(=O)Nc1cccc(C(C)=O)c1` [Prestw-Frag-1717, CCCC(=O)Nc1cccc(c1)C(C)=O] here?
Its value is 0.9496 and 0.8871.

With `c1ccc2c(c1)CNc1ccccc1C2` [Prestw-Frag-1722, C1Nc2ccccc2Cc2ccccc12] as the compound, how does the “HNF4a-screening_activity_(mean_of_n=2)” value read?
Its value is 1.196 and 1.047.

With `COc1cc(C(N)=O)cc(OC)c1OC` [Prestw-Frag-1731, COc1cc(cc(OC)c1OC)C(N)=O] as the compound, how does the “HNF4a-screening_activity_(mean_of_n=2)” value read?
The value was 0.8442.

With `CCN(CC)CCOC(=O)c1ccccc1` [Prestw-Frag-1735, CCN(CC)CCOC(=O)c1ccccc1] as the compound, how does the “HNF4a-screening_activity_(mean_of_n=2)” value read?
Its value is 0.9109 and 1.027.

`O=C1CCOc2ccccc21` [Prestw-Frag-1740, O=C1CCOc2ccccc12] was tested. Which “HNF4a-screening_activity_(mean_of_n=2)” value did it give?
The value was 0.9806.

`Clc1ccc(C(c2ccccc2)N2CCNCC2)cc1` (stereo not shown) [Prestw-Frag-1741, Clc1ccc(cc1)C(N1CCNCC1)c1ccccc1] was tested. Which “HNF4a-screening_activity_(mean_of_n=2)” value did it give?
Its value is 1.086.

For `CC(=O)NCc1cccnc1` [Prestw-Frag-1745, CC(=O)NCc1cccnc1], which “HNF4a-screening_activity_(mean_of_n=2)” value is on record?
Its value is 0.9231 and 1.026.

Which “HNF4a-screening_activity_(mean_of_n=2)” value does the source give for `O=C(NCc1cccnc1)c1ccc(O)cc1` [Prestw-Frag-1747, Oc1ccc(cc1)C(=O)NCc1cccnc1] here?
Its value is 0.7115 and 0.9722.

Which “HNF4a-screening_activity_(mean_of_n=2)” value does the source give for `CC(=O)Nc1ncc([N+](=O)[O-])s1` [Prestw-Frag-1750, CC(=O)Nc1ncc(s1)[N+]([O-])=O] here?
The value was 1.04 and 0.8827.

How did the “HNF4a-screening_activity_(mean_of_n=2)” value turn out when `O=C(O)CCCc1ccc(-c2ccccc2)cc1` [Prestw-Frag-1767, OC(=O)CCCc1ccc(cc1)-c1ccccc1] was run?
The value was 0.6264.

For `Fc1cccc(F)c1N1CCNCC1` [Prestw-Frag-1806, Fc1cccc(F)c1N1CCNCC1], which “HNF4a-screening_activity_(mean_of_n=2)” value is on record?
The value was 0.9867 and 1.428.

`COc1ccc(OCC(N)=O)cc1` [Prestw-Frag-1812, COc1ccc(OCC(N)=O)cc1] was tested. Which “HNF4a-screening_activity_(mean_of_n=2)” value did it give?
The value was 0.9996 and 1.207.
